Experimental data reported in patent US20240398781A1, “SPIROCYCLIC CYCLIC MODULATORS OF CHOLESTEROL BIOSYNTHESIS AND THEIR USE FOR PROMOTING REMYELINATION” (GENENTECH, INC., priority 2021, published 2024).

Key:
human EBP = human EBP (Homo sapiens (Human), UniProt Q15125); test: Competition binding assay (SPA, [3H]-Ifenprodil) to determine compound affinity to EBP; conditions: [3H]-Ifenprodil 10 nM, HEK293 membrane overexpressing human EBP, Ki=IC50/(1+[L]/Kd); read-out: hEBP SPA Ki
Experimental: Membrane preparation: To examine compound binding affinity to EBP, human EBP was overexpressed in human embryonic kidney 293 cells. Cell pellet was lysed in 10 times weight binding buffer (50 mM Tris, 5 mM MgCl2, 0.1 mM EDTA, lx protease inhibitor cocktail, pH 7.5) on ice by using a dounce homogenizer. The solution was centrifuged at 25,000 g for 50 min at 4° C. The membrane pellet was re-suspended in binding buffer and run through a 25 5/8 gauge needle. After checking the concentration by Bradford assay, the whole cell membrane solution was adjusted to 20 mg/mL and stored at −80° C.
This binding solution was centrifuged at 400 g for 5 minutes to collect the bead/membrane mixture. After re-suspending the pellet in binding buffer at the same calculated volume with 0.01% BSA (Sigma A1933), the bead/membrane mixture was added in 384-well low-binding surface plate (PerkinElmer Cat #6057480) at 25 μl/well. Radioligand at different concentrations with and without the non-radio-labeled same ligand 5 uM (for nonspecific and total signal, respectively) was added to bring final volume to 50 µl/well with DMSO concentration at 0.1%. At equilibrium (3 hours after ligand addition), radiometric signal CPM was counted by using a Microbeta2 microplate counter (Perkinelmer).
Competition binding assay to determine compound affinity: The same conditions of the radioligand Kd study were used for compound single dose percentage inhibition and equilibrium dissociation constant Ki examinations, except 50 nL compound DMSO stock was pre-added in 384-well low-binding surface plate (PerkinElmer Cat #6057480) by Echo 550 (Labcyte) to reach the final concentration for single dose test at 1 uM, and dose response test from 0.06 nM to 5 uM (8 dose, 5 times dilution). A pre-incubated bead/membrane mixture was added in compound plate at 0.3 mg beads and […] membrane per well. […] At equilibrium (3 hours after ligand addition), radiometric signal was counted as described above. The percentage inhibition of compound at each testing concentration was calculated by normalizing each condition's CPM readout to full block (5 uM non-radiolabeled ligand) and non-block (DMSO) control conditions. Compound binding inhibition IC50 was determined by nonlinear regression fitting of percentage inhibition plot against compound concentration. Compound Ki was calculated from the equation Ki=IC50/(1+[L]/Kd), which [L] was radioligand concentration used in assay. All tests had N bigger or equal to 2.

[1] = molecular target: human emopamil binding protein and human 7-dehydrocholesterol reductase co-expressing cells (hEBP-DHCR7 membrane) (Homo sapiens (Human), UniProt Q15125); test: Radioligand filter binding assay on hEBP-DHCR7 membrane; conditions: [3H]-(S)-6-(2-Methyl-3-(6-(trifluoromethyl)pyridin-3-yl)propyl)-2-thia-6-azaspiro[3.4]octane 2,2-dioxide radioligand, HEK293 membrane co-expressing hEBP and hDHCR7
Sequence of human emopamil binding protein and human 7-dehydrocholesterol reductase co-expressing cells (hEBP-DHCR7 membrane) (Q15125 whole entry): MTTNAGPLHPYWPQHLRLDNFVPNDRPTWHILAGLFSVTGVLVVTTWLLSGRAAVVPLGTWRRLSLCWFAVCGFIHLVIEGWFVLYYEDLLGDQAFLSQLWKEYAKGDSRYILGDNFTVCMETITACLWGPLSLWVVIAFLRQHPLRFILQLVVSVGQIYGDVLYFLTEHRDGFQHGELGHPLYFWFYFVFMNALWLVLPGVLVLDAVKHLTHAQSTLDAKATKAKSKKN
Summary of the method: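 HEK293 cells transiently co-expressing human EBP and DHCR7 supplied whole-cell membranes (10 μg/well), incubated 3 h at 22 °C with [3H]-labelled spiro-octane dioxide ligand (added at 25 nM) and compound (0.06-5000 nM final, 8 doses, n=2). Bound ligand was collected on PEI-treated GF/B filters and counted by scintillation. IC50 was Hill-fitted from % inhibition and reported as Ki.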

[2] = system: EBP (zymostenol accumulation in EpiSC-derived OPCs); test: GC/MS-based sterol profiling, zymostenol accumulation in OPCs; assay type: cell-based, mouse; conditions: Mus musculus, 24 h, EpiSC-derived OPCs, 24 hr treatment, 8 doses from 0.15 nM to 333 nM; read-out: Zymostenol GCMS EC50
Summary of the method: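 EpiSC-derived OPCs (100,000/well) were treated 24 h in N2B27 without growth factors. Sterols were TMS-derivatized and analysed by GC/MS full-scan EI, quantified against cholesterol-d7. Zymostenol was normalized to the level after 24 h with 100 nM positive control reference.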

EpiSC-derived OPCs = test: In vitro phenotypic screening of OPCs (MBP staining, high-content imaging); assay type: cell-based, mouse; conditions: Mus musculus, 72 h, percentage of MBP+ oligodendrocytes, 3 days, 0.5 nM to 1000 nM; read-out: OPC EC50
Summary of the method: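 Readout: high-content imaging of MBP immunostaining around DAPI nuclei, giving percent oligodendrocytes, with EC50 from a Levenberg-Marquardt Hill fit. Epiblast stem cell-derived OPCs were plated on laminin at 150,000/cm^2 in growth-factor-free N2B27. They were exposed 3 days to an 8-point series, 0.5-1000 nM final, in two or more independent platings.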

Sequence of human EBP (Q15125 whole entry): as above

| Ki [1] [µM] | Compound | Ki (human EBP) [µM] | EC50 [2] [µM] | EC50 (EpiSC-derived OPCs) [µM] |
| --- | --- | --- | --- | --- |
| 0.0331 | CC(C)n1nc(C(F)(F)F)cc1[C@@H]1CC[C@@H](N2CCC3(C2)CS(=O)(=O)C3)C1 (single isomer, unassigned) [10D*] | 0.043 | 0.044 | – |
| – | CC(C)n1nc(-c2ccc(C(F)(F)F)nc2)nc1[C@@H]1CC[C@@H](N2CCC3(C2)CS(=O)(=O)C3)C1 (single isomer, unassigned) [17C*] | 0.018 | 0.0029 | 0.013 |
| 0.011 | Cc1cc(C(F)(F)F)cnc1[C@H]1CC[C@@H](N2CCC3(C2)CS(=O)(=O)C3)CC1 [Compound 47A, 6-((1s,4s)-4-(3-methyl-5-(trifluoromethyl)pyridin-2-yl)cyclohexyl)-2-thia-6-azaspiro[3.4]octane 2,2-dioxide] | 0.011 | 0.0091 | – |

| Compound | Ki [1] [µM] | Ki (human EBP) [µM] | EC50 [2] [µM] | EC50 (EpiSC-derived OPCs) [µM] |
| --- | --- | --- | --- | --- |
| CC(C)n1nc(-c2ccc(C(F)(F)F)nc2)nc1[C@@H]1CC[C@H](N2CCC3(C2)CS(=O)(=O)C3)C1 (single isomer, unassigned) [17A*] | 0.024 | 0.022 | 0.0021 | – |
